# Measured values from ChEMBL document CHEMBL3297694, “Naturally occurring polyphenolic inhibitors of amyloid beta aggregation” (Bioorg Med Chem Lett, 2014).
# pIC50: −log10 of the molar value. Calls of active or inactive are those of the source. The calls are words filed in the database; no cut-off is given here.
# Legend:
# [1] = molecular target: T1, Amyloid-beta precursor protein (Homo sapiens, UniProt P05067); assay: Inhibition of amyloid beta1-42 (unknown origin) aggregation assessed as reduction in amyloid fibril formation at 40 uM after 5 days by Transmission electron microscopy
# T1 sequence (P05067 whole entry): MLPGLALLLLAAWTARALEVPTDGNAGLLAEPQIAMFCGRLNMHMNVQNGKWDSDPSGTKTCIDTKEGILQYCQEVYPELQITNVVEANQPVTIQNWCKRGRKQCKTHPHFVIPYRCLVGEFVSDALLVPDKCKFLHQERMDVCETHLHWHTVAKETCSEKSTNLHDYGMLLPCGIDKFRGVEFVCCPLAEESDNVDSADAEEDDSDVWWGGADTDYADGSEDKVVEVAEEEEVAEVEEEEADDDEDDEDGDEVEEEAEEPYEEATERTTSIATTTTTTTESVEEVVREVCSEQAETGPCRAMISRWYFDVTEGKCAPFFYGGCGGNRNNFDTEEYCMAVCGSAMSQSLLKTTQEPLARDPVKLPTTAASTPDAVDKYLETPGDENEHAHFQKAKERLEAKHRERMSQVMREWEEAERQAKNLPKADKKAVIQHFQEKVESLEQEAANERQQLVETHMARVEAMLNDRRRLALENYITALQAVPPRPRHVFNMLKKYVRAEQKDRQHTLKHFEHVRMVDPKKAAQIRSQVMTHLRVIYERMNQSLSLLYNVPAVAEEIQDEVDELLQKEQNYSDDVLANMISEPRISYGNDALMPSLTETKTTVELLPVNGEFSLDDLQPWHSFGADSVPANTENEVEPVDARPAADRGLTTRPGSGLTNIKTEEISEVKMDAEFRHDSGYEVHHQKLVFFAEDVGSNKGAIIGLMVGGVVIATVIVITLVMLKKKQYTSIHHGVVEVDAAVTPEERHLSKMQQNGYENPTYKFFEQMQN
# [2] = molecular target: T1, Amyloid-beta precursor protein; assay: Inhibition of amyloid beta1-42 (unknown origin) aggregation assessed as amyloid fibril formation tested after 17 hrs by thioflavin T fluorescence method
# [3] = molecular target: T1, Amyloid-beta precursor protein; assay: Inhibition of amyloid beta1-42 (unknown origin) aggregation assessed as amyloid fibril formation tested at 1:1 compound to peptide ratio after 17 hrs by thioflavin T fluorescence method; set-up: scale not given: the % may be the effect or the level left
# [4] = molecular target: T1, Amyloid-beta precursor protein; assay: Inhibition of amyloid beta1-42 (unknown origin) aggregation assessed as reduction in large aggregates at 400 uM after 20 mins and 2 hrs by size exclusion chromatography test
# [5] = molecular target: T1, Amyloid-beta precursor protein; assay: Inhibition of amyloid beta1-42 (unknown origin) aggregation assessed as reduction in large aggregates at 100 uM after 20 mins and 24 hrs by dynamic light scattering method
# [6] = molecular target: T1, Amyloid-beta precursor protein; assay: Inhibition of amyloid beta1-40 (unknown origin) aggregation
Structure (SMILES),inhibition of amyloid fibril formation (active/inactive) [1],pIC50 [2],Activity [3] [%],Activity [4],inhibition [5],pIC50 [6]
O=c1cc(-c2ccc(O)c(O)c2)oc2cc(O)cc(O)c12 [LUTEOLIN],Active,5.19,14.4,–,–,–
COc1c(-c2ccc(O)c(O)c2)oc2c(O)c(O)ccc2c1=O,Active,5.27,21,Active,Active,–
O=C(O[C@@H]1Cc2c(O)cc(O)cc2O[C@@H]1c1cc(O)c(O)c(O)c1)c1cc(O)c(O)c(O)c1 [EPIGALOCATECHIN GALLATE],Active,5.34,16,–,–,5.52
O=C1/C(=C/c2ccc(O)c(O)c2)Oc2c1ccc(O)c2O,Active,5.57,18.5,–,–,–
